Laboratory results from patent publication US20040029777A1, “Pharmaceutical preparation for taste masking” (TAISHO PHARMACEUTICAL CO., LTD., priority 2002, published 2004).

Legend:
[1] = Thermographic analysis (TGA), change in weight at set temperature; format: physicochemical
Experimental: Samples weighing approximately 10 mg were placed in a platinum pan and the change in weight at a set temperature (100° C., 150° C.) was measured using Perkin-Elmer Thermal Analysis Equipment.

[2] = In vitro dissolution test, USP apparatus 2 (paddle); format: physicochemical; details: distilled water (FIG. 16)
Experimental: Complexes that corresponded to 150 mg of ibuprofen were subjected to dissolution in a USP (United States Pharmacopoeia) dissolution apparatus 2 (Paddle-type) with several kinds of solutions (900 ml). This dissolution test was conducted at 37° C., and a paddle rotation speed of 50 rpm was maintained. A UV detector was used to measure the absorbance of dissolution liquids at regular intervals of up to 120 minutes.
The complexes containing 150 mg of ibuprofen were subjected to dissolution testing using a USP dissolution apparatus 2 (Paddle-type) with several kinds of solutions (900 ml). This dissolution test was conducted at 37° C., at a paddle rotation speed of 50 rpm. A UV detector was used to measure the absorbance of dissolution liquids at regular intervals up to 120 minutes.

Q: With `CC(C)Cc1ccc(C(C)C(=O)O)cc1` (stereo not drawn) [ibuprofen, Ibuprofen] as the molecule, how does the “TGA change in weight (sublimation)” value ([1]; 100° C.) read?
A: showed sublimation

Q: And the “TGA change in weight (sublimation)” value ([1]; 150° C.)?
A: showed sublimation

Q: And the dissolution profile saturation [2]?
A: ~40%
